Where two headings read alike, the source gives them in different places.
Tests used:
SUM 149PT = assay: triple negative breast cell panel, EC50 2D/3D; type: cell-based; conditions: Homo sapiens, SUM149PT
HCC 1806 = assay: triple negative breast cell panel, EC50 2D/3D; type: cell-based; conditions: Homo sapiens, HCC1806
HCC 1143 = assay: triple negative breast cell panel, EC50 2D/3D; type: cell-based; conditions: Homo sapiens, HCC1143
BT20 = assay: triple negative breast cell panel, EC50 2D/3D; type: cell-based; conditions: Homo sapiens, BT-20
HCC 1937 = assay: triple negative breast cell panel, EC50 2D/3D; type: cell-based; conditions: Homo sapiens, HCC1937
MDA-MB-231 = assay: triple negative breast cell panel, EC50 2D/3D; type: cell-based; conditions: Homo sapiens
CAMA-1 = assay: triple negative breast cell panel, EC50 2D/3D; type: cell-based; conditions: Homo sapiens
HCC 70 = assay: triple negative breast cell panel, EC50 2D/3D; type: cell-based; conditions: Homo sapiens, HCC70
MDA-MB-468 = assay: triple negative breast cell panel, EC50 2D/3D; type: cell-based; conditions: Homo sapiens; MDA-MB-468, 3D
BT 549 = assay: triple negative breast cell panel, EC50 2D/3D; type: cell-based; conditions: Homo sapiens
triple negative mBC = conditions: Cohort A
Protocol: (§1) A Phase II, open-label, multicenter trial was conducted in Belgium and Germany. Two Cohorts of patients were included: • Cohort A: Patients with triple negative mBC • Cohort B: Patients with HER2-negative, HR-positive mBC. • Primary endpoint for Cohort A and B initially was objective response as determined by response evaluation criteria in solid tumours (RECIST) criteria, as described by P. Therasse et al., J Natl Cancer Inst 2000, 92, 205-216. For Cohort A this was modified by amendment to clinical benefit (CB), i.e. complete response (CR), partial response (PR) and stable disease (SD) for at least 4 courses. • Secondary endpoints were time to progression, progression-free survival (PFS), overall survival (OS), time to objective response, duration of objective response, safety and pharmacokintics (PK). Clinical benefit (CR, PR, SD) was a secondary endpoint for Cohort B. • A total of 80 patients was planned to be enrolled into the trial: 80, i.e. 40 patients per cohort. […] Additional predose plasma samples were taken on Day 15 of Course 1, on Day 1 of Course 2 and on Day 1 of all subsequent courses (Course 3 onwards).
(§2) Dose reduction to 40 mg/day and 30 mg/day was an option for patients experiencing certain drug-related AEs.
• HR-negative patients: estrogen receptor (ER) status and progesterone receptor (PgR) status must be assessed by immunohistochemistry (IHC) and Allred (Harvey J M et al., J Clin Oncol 1999, 17(5), 1474-1481).

[1] = system: HER2-negative, HR-positive mBC; assay: Phase II clinical study, Cohort B; type: in vivo, human
Protocol: as §1, §2
• Confirmed diagnosis of Stage IV HER2-negative metastatic breast cancer (HER22+ and fluorescence in situ hybridization-negative or HER21+ or negative) • Progression following no more than two lines of chemotherapy including adjuvant, not including hormone treatments for Cohort B • Age ≧18 years • Life expectancy of at least 6 months • Written informed consent • Eastern Cooperative Oncology Group (ECOG) performance score 0-2 • Measurable disease according to RECIST criteria • Availability of tumour samples (fresh or paraffin material) for EGFR-testing. • No prior treatment with EGFR/HER1 or HER2 inhibiting agent • Adequate liver, kidney and bone marrow function • No concomitant treatment with other investigational drugs • No other anti-cancer-therapy within four weeks prior to the first treatment with the trial drug. • Concurrent treatment with biphosphonates is allowed.
• ER-positive and/or PgR-positive patients: ER-status and PgR-status must be assessed by IHC and Allred (Harvey J M et al., J Clin Oncol 1999, 17(5), 1474-1481).

[2] = system: HER2-negative metastatic breast cancer; assay: Phase II clinical study, all treated patients (safety, PK, exposure); type: in vivo, human
Protocol: as §1, with “Two Cohorts of patients were included: • Cohort A: Patients with triple negative mBC • Cohort B: Patients with HER2-negative, HR-positive mBC. • Primary endpoint for Cohort A and B initially was objective response as determined by response evaluation criteria in solid tumours (RECIST) criteria, as described by P. Therasse et al., J Natl Cancer Inst 2000, 92, 205-216.” left out
as §2

SUM149 Xenografts = assay: triple negative, EGFR positive SUM149 Xenografts in mice; type: in vivo
[3] = HCC 1806, 2D, read-out: EC50 [nM] 2D
[4] = HCC 1806, 3D, read-out: EC50 [nM] 3D
[5] = HCC 1143, 2D, read-out: EC50 [nM] 2D
[6] = HCC 1143, 3D, read-out: EC50 [nM] 3D
[7] = BT20, 2D, read-out: EC50 [nM] 2D
[8] = BT20, 3D, read-out: EC50 [nM] 3D
[9] = HCC 1937, 2D, read-out: EC50 [nM] 2D
[10] = HCC 1937, 3D, read-out: EC50 [nM] 3D
[11] = MDA-MB-231, 2D, read-out: EC50 [nM] 2D
[12] = MDA-MB-231, 3D, read-out: EC50 [nM] 3D
[13] = CAMA-1, 2D, read-out: EC50 [nM] 2D
[14] = CAMA-1, 3D, read-out: EC50 [nM] 3D
[15] = HCC 70, 2D, read-out: EC50 [nM] 2D
[16] = HCC 70, 3D, read-out: EC50 [nM] 3D
[17] = BT 549, 2D, read-out: EC50 [nM] 2D
[18] = three patients with clinical benefit for >4 months
[19] = 50 treated patients, 50 mg/day oral

Row | Compound | EC50 (SUM 149PT) [nM] | EC50 (HCC 1806; [3]) [nM] | EC50 (HCC 1806; [4]) [nM] | EC50 (HCC 1143; [5]) [nM] | EC50 (HCC 1143; [6]) [nM] | EC50 (BT20; [7]) [nM] | EC50 (BT20; [8]) [nM] | EC50 (HCC 1937; [9]) [nM] | EC50 (HCC 1937; [10]) [nM] | EC50 (MDA-MB-231; [11]) [nM] | EC50 (MDA-MB-231; [12]) [nM] | EC50 (CAMA-1; [13]) [nM] | EC50 (CAMA-1; [14]) [nM] | EC50 (HCC 70; [15]) [nM] | EC50 (HCC 70; [16]) [nM] | EC50 (MDA-MB-468) [nM] | EC50 (BT 549; [17]) [nM] | further results
1 | CN(C)C/C=C/C(=O)Nc1cc2c(Nc3ccc(F)c(Cl)c3)ncnc2cc1O[C@H]1CCOC1 [BIBW 2992, 4-[(3-chloro-4-fluorophenyl)amino]-6-{[4-(N,N-dimethylamino)-1-oxo-2-buten-1-yl]amino}-7-((S)-tetrahydrofuran-3-yloxy)-quinazo line] | 17 | > 4000 | 47 | > 4000 | > 1000 | > 4000 | 23 | > 4000 | > 4000 | > 10000 | 2150 | 234 | 277 | 571 | > 1000 | 1250 | 2020 | EC50 (BT 549; BT 549, 3D, read-out: EC50 [nM] 3D): 956 nM; patients discontinued due to disease progression (triple negative mBC): 19 patients; objective response (OR), RECIST (triple negative mBC; 50 mg/day oral): No objective response; patients remaining on treatment with SD for >4 cycles (triple negative mBC; 50 mg/day oral): three; overall median PFS (triple negative mBC; 29 patients): 53 days; patients with a best response of SD (triple negative mBC; 29 patients included, 50 mg/day oral): Seven; mean PFS (triple negative mBC; [18]): 217 days; median PFS (triple negative mBC; [18]): 184 days; patients discontinued due to disease progression [1]: 12 patients; objective response (OR), RECIST ([1]; 50 mg/day oral): No OR; patients with SD for ≧4 cycles ([1]; 50 mg/day oral): 1 patient; patients with a best response of SD ([1]; 21 patients included, 50 mg/day oral): 5 patients; patients discontinued due to dose-reducing toxicities ([2]; 50 treated patients): 15 patients; patients discontinued due to other AEs ([2]; 50 treated patients): four; patients discontinued treatment due to AEs [2, 19]: Nineteen; safety profile [2, 19]: safety profile similar to other EGFR TKIs; patients discontinued due to disease progression ([2]; all 50 treated patients): Thirty-one
2 | CCOc1cc2ncc(C#N)c(Nc3ccc(OCc4ccccn4)c(Cl)c3)c2cc1NC(=O)/C=C/CN(C)C [HKI-272] |  |  |  |  |  |  |  |  |  |  |  |  |  |  |  |  |  | T/C [%] Day 42 (SUM149 Xenografts; 50 mg/kg/d (MTD)): 36%
3 | C#Cc1cccc(Nc2ncnc3cc(OCCOC)c(OCCOC)cc23)c1 [erlotinib] |  |  |  |  |  |  |  |  |  |  |  |  |  |  |  |  |  | T/C [%] Day 42 (SUM149 Xenografts; 75 mg/kg/d (MTD)): 6%
4 | CS(=O)(=O)CCNCc1ccc(-c2ccc3ncnc(Nc4ccc(OCc5cccc(F)c5)c(Cl)c4)c3c2)o1 [lapatinib, reference compound] | 1360 | > 4000 | > 4000 | > 4000 | > 4000 | > 4000 | 467 | > 4000 | > 4000 | > 10000 | > 4000 | > 1000 | 3010 | > 1000 | > 1000 | > 1000 | > 1000 | T/C [%] Day 42 (SUM149 Xenografts; 2 × 100 mg/kg/d (MTD)): 25%
